Assay results: US20100144714A1, “DERIVATIVES OF IMIDAZO PYRIMIDO AND DIAZEPINE PYRIMIDINE-DIONE, AND USE THEREOF AS A DRUG” (SOCIETE DE CONSEILS DE RECHERCHES ET D'APPLICATIONS …, priority 2006, published 2010)
pKi: −log10 of the molar value.

Target: T1, human CB2 receptors (Homo sapiens, UniProt P34972)
T1 construct: expressed in transfected cells
Assay: Affinity for the human CB2 cannabinoid receptors: inhibition of [3H]-CP55940 binding to transfected CHO-K1 cell membranes
Conditions: [3H]-CP55940 (1 nM), CHO-K1 membranes expressing human CB2; Cheng-Prusoff corrected; x = Ki below 50 nM
Protocol: The affinity of the compounds of the present invention for the different sub-types of cannabinoid receptors was measured according to procedures analogous to those described hereafter for the human CB2 receptor.
Study of the Affinity of the Compounds for the Human CB2 Cannabinoid Receptors
The affinity of the compounds of the invention for the human CB2 receptors is determined by measuring the inhibition of the binding of [^3H]-CP55940 to transfected CHO-K1 cell membrane preparations.
The CHO-K1 cells expressing the human CB2 receptors in a stable fashion are cultured in an RPMI 1640 medium containing 10% foetal calf serum, 2 mM of glutamine, 100 U/ml of penicillin, 0.1 mg/ml of streptomycin and 0.5 mg/ml of G418. The cells are collected with 0.5 mM of EDTA and centrifuged at 500 g for 5 minutes at 4° C. The pellet is re-suspended in phosphate buffered saline medium (PBS) and centrifuged at 500 g for 5 minutes at 4° C. The pellet is re-suspended in a Tris 50 mM buffer medium at pH 7.4 and centrifuged at 500 g for 5 minutes at 4° C. The cells are lysed by sonication and centrifuged at 39,000 g for 10 minutes at 4° C. The pellet is re-suspended in the Tris 50 mM buffer medium at pH 7.4 and centrifuged at 50,000 g for 10 minutes at 4° C. The membranes obtained in this last pellet are stored at −80° C.
Measurement of the competitive inhibition of the binding of the [^3H]-CP55940 to the CB2 receptors is carried out in duplicate using 96-well polypropylene plates. The cell membranes (10 μg of proteins/well) are incubated with the [^3H]-CP55940 (1 nM) for 60 minutes at 25° C. in a Tris-HCl 50 mM buffer medium, pH 7.4, comprising 0.1% bovine serum albumin (BSA), 5 mM of MgCl2, and 50 μg/ml of bacitracin.
The bound [^3H]-CP55940 is separated from the free [^3H]-CP55940 by filtration through GF/C glass fibre filter plates (Unifilter, Packard) pre-impregnated with 0.1% polyethylenimine (P.E.I.), using a Filtermate 196 (Packard). The filters are washed with Tris-HCl 50 mM buffer, pH 7.4 at 0-4° C. and the radioactivity present is determined using a counter (Packard Top Count).
The specific binding is obtained by subtracting the non-specific binding (determined in the presence of 0.1 μM of WIN55212-2 from the total binding). The data are analyzed by computer-assisted non-linear regression (MDL). For each test, a Cheng-Prusoff correction is made in order to convert the IC50 to the inhibition constant, Ki.
where [L] is the concentration of the radioligand used in the test and Kd is the radioligand equilibrium dissociation constant.

T1 sequence (P34972 whole entry): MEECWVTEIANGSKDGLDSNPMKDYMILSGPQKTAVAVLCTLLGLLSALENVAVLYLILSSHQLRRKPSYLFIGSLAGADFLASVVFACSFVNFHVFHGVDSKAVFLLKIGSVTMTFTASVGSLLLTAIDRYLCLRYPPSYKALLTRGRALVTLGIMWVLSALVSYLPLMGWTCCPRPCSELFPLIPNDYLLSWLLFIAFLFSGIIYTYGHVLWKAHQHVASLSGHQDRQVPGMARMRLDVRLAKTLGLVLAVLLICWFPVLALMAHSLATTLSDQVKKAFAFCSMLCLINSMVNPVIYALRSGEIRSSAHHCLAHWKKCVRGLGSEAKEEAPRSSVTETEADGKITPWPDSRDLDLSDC

| Structure (SMILES) | pKi |
| --- | --- |
| CN1CCN(c2ccc(CN3C(=O)C(CC4CCCCC4)n4c3nc3ccccc3c4=O)cc2)CC1 (stereo not shown) [Example 1] | > 7.30 |
| CN1CCN(c2ccc(CN3C(=O)C(c4ccc(-c5ccccc5)cc4)n4c3nc3ccccc3c4=O)cc2)CC1 (stereo not shown) [Example 2] | > 7.30 |
| CN1CCN(c2ccc(CN3C(=O)C(CCC4CCCCC4)n4c3nc3ccccc3c4=O)cc2)CC1 (stereo not shown) [Example 4] | > 7.30 |
| CN1CCN(c2ccc(CN3C(=O)C(C4CCCCC4)n4c3nc3ccccc3c4=O)cc2)CC1 (stereo not shown) [Example 5] | > 7.30 |
| CN1CCN(c2ccc(CN3C(=O)C(c4ccc5ccccc5c4)n4c3nc3ccccc3c4=O)cc2)CC1 (stereo not shown) [Example 8] | > 7.30 |
| CN1CCN(c2ccc(CN3C(=O)C(Cc4ccccc4)n4c3nc3ccccc3c4=O)cc2)CC1 (stereo not shown) [Example 12] | > 7.30 |
| CN1CCN(c2ccc(CN3C(=O)C4(Cc5ccccc5C4)n4c3nc3ccccc3c4=O)cc2)CC1 [Example 17] | > 7.30 |
| CCCCC1(CCCC)C(=O)N(Cc2ccc(N3CCN(C)CC3)cc2)c2nc3ccccc3c(=O)n21 [Example 31] | > 7.30 |
| CN1CCN(c2ccc(CN3C(=O)CC(C)(C)n4c3nc3ccccc3c4=O)cc2)CC1 [Example 35] | > 7.30 |
| CN1CCN(c2ccc(CN3C(=O)C(C)(C)Cn4c3nc3ccccc3c4=O)cc2)CC1 [Example 37] | > 7.30 |
| CC(C)C[C@H]1CC(=O)N(Cc2ccc(N3CCN(C)CC3)cc2)c2nc3ccccc3c(=O)n21 [Example 38] | > 7.30 |
| CC(C)CC1CC(=O)N(Cc2ccc(N3CCN(C)CC3)cc2)c2nc3ccccc3c(=O)n21 (stereo not shown) [Example 43] | > 7.30 |
| CN1CCN(c2ccc(CN3C(=O)CC(c4ccccc4)n4c3nc3ccccc3c4=O)cc2)CC1 (stereo not shown) [Example 44] | > 7.30 |
| CN1CCN(c2ccc(CN3C(=O)CC(C4CCCCC4)n4c3nc3ccccc3c4=O)cc2)CC1 (stereo not shown) [Example 45] | > 7.30 |
| CN1CCN(c2ccc(CN3C(=O)CC(Cc4ccccc4)n4c3nc3ccccc3c4=O)cc2)CC1 (stereo not shown) [Example 46] | > 7.30 |
| CN1CCN(c2ccc(CN3C(=O)CC(CCc4ccccc4)n4c3nc3ccccc3c4=O)cc2)CC1 (stereo not shown) [Example 48] | > 7.30 |
